Experimental data: article PMC4296974 (Bioorganic & medicinal chemistry letters, 2014)
Blank lines part the entries; values can stand above or below the molecule they belong to.

Experiments:
rNTS2 [1] = biological target: T1, rNTS2 (Rattus norvegicus, UniProt Q63384); assay: FLIPR calcium mobilization assay in CHO cell line stably expressing rNTS2; assay type: cell-based
T1 sequence (Q63384 1-416): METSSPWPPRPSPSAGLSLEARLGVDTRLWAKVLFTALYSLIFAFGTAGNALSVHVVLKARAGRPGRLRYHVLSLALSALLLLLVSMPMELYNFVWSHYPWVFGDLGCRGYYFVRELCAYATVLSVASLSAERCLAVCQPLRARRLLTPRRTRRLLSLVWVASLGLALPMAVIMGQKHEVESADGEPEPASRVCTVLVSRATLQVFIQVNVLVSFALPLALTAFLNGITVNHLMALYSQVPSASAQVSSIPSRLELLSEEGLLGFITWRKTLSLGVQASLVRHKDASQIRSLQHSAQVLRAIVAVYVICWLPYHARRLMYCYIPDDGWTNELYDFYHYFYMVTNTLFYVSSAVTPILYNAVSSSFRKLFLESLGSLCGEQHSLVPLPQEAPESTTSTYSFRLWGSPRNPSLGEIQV

rNTS2 [2] = biological target: T1, rNTS2; settings: Emax value is % of 4; cited from earlier work
rNTS1 = rNTS1 (Rattus norvegicus, UniProt P20789); settings: read-out: Binding Assay NTS1 Ki; [125I]NT, bound; cited from earlier work
rNTS2 [3] = biological target: T1, rNTS2; assay: [125I]NT competition binding assay at NTS2; settings: relative to 9
NTS1 = NTS1 (Rattus norvegicus, UniProt P20789); assay: FLIPR calcium mobilization assay at NTS1; assay type: cell-based; settings: 17: agonist and antagonist screen at 10 μM; 9, 14b, 16b: data not shown
NTS1, sequence (P20789 whole entry): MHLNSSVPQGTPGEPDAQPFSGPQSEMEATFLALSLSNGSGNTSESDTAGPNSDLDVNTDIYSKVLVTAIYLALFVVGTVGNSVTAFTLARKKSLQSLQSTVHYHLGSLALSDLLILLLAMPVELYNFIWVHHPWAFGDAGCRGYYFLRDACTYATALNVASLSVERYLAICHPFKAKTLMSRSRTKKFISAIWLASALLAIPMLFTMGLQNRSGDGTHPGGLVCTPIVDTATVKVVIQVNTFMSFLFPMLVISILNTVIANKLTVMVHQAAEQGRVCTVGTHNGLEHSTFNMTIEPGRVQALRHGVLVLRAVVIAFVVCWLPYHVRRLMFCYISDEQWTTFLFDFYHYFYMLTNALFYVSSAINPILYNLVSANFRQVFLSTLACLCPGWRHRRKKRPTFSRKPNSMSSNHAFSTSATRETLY

rNTS1, sequence (P20789 whole entry): as above

Structure (SMILES): C[C@@H]1CN([C@H]2CC[C@](C#N)(c3ccc(F)cc3)CC2)CC[C@]1(C(=O)O)c1ccccc1 [Compound 5, levocabastine]
FLIPR Assay NTS2 Emax (rNTS2 [2]): 16±3% | Ki (rNTS1): > 25 µM

Structure (SMILES): COc1cccc(OC)c1-c1nc(C(=O)N[C@H](C(=O)O)C2CCCCC2)nc2ccc(Cl)cc12 [Compound 14b]
Fold less active than NT in the NTS2 functional assay (rNTS2 [1]; IC50 comparison with NT): 25 fold | Fold weaker than 9 in NTS2 binding (Ki) (rNTS2 [3]): 5 fold | Activity in the calcium mobilization assay at NTS1 (NTS1): failed to show activity

Structure (SMILES): COc1cccc(OC)c1-c1nc(C(=O)NC2(C(=O)O)CCCCC2)nc2ccc(Cl)cc12 [Compound 16b]
Fold lower activity than 9 in NTS2 FLIPR assay (EC50) (rNTS2 [1]; relative to 9): roughly 10 fold | Fold weaker than 9 in NTS2 binding (Ki) (rNTS2 [3]): 11 fold | Activity in the calcium mobilization assay at NTS1 (NTS1): failed to show activity

Structure (SMILES): O=C(O)c1cc(Nc2nc(-c3ccccc3)c3cc(Cl)ccc3n2)ccc1O [Compound 17]
Activity in the calcium mobilization assay at NTS1 (NTS1): devoid of activity

Further lines, results first:

Emax (rNTS2 [1]; CHO, read-out: FLIPR Assay NTS2 Emax): 100 ± 5%
Structure (SMILES): COc1cccc(OC)c1-c1cc(C(=O)NC2(C(=O)O)C3CC4CC(C3)CC2C4)nn1-c1ccc(C(=O)N(C)CCCN(C)C)cc1C(C)C (centres unmarked) [Compound 4, reference compound]

inhibition at 10 µM (rNTS2 [1]; CHO, read-out: % inhibition of calcium release mediated by 4 at NTS2): < 30%
Structure (SMILES): COc1cccc(OC)c1-c1cc(C(=O)N[C@@H](CC(C)C)C(=O)O)nn1-c1ccc(F)cc1 [Compound 21, reference compound]
